Source: US20070281992A1, “COMBINATION OF GYRASE B INHIBITORS AND PROTEIN SYNTHESIS INHIBITORS AND USES THEREOF” (priority 2006, published 2007)
Like-named read-outs stand apart in the source and are kept apart here.

Columns and labels:
[1] = system: Methicillin-Resistant Staphylococcus aureus Isolates; test: MIC assay (NCCLS broth dilution), MRSA clinical isolates; format: cell-based; conditions: Staphylococcus aureus; for MIC: read-out: Minimal Inhibitory Concentration
Description: (§1) Antibiotics: novobiocin, tetracycline, minocycline, oxacillin, and vancomycin were all purchased from Sigma-Aldrich. Linezolid was obtained from Pfizer, Inc. Novobiocin/tetracycline and novobiocin/minocycline were tested in a 2.5:1 ratio to mimic the serum levels. (Vavra, J. J., 1967, Development of resistance to novobiocin, tetracycline, and novobiocin-tetracycline combinations in Staphylococcus aureus populations, J. Bacteriol 93(3):801). Compounds were tested across a concentration range consisting of 11 two-fold serial dilutions of test agent.
(§2) Stock solutions were prepared in sterile deionized water; novobiocin stock concentration was 1600 μg/mL and all other drugs stock solutions were prepared at 640 μg/mL. The stock solutions were allowed to sit at room temperature for one hour to auto-sterilize prior to use in the test. All compounds were in solution in water. The control agent was vancomycin hydrochloride, Sigma Chemical Lot # 015K0825.
(§3) The test organisms for the assay were 52 MSSA, 52 MRSA, 8 VISA, 7 VISE, and 3 LRSA isolates. Quality control strains included Staphylococcus aureus 0100 (ATCC 29213) and Enterococcus faecalis (ATCC 29212).
(§4) The MIC assay was performed according to published NCCLS guidelines. (National Committee for Clinical Laboratory Standards, Methods for Dilution Antimicrobial Susceptibility Tests for Bacteria that Grow Aerobically; Approved Standard-Sixth Edition, NCCLS Document M7-A6 [ISBN 1-56238-486-4], NCCLS, 940 West Valley Road, Suite 1400, Wayne, Pa. 19087-1898 USA, 2003). The test medium was Mueller Hinton II Broth for all organisms.

[2] = system: Vancomycin-intermediate Staphylococcus epidermidis Isolates; test: MIC assay (NCCLS broth dilution), VISE isolates; format: cell-based; conditions: for MIC: read-out: Minimal Inhibitory Concentration
Description: as §1, §2, §3, §4

[3] = system: Staphylococcus aureus 0100 (ATCC 29213); conditions: S. aureus ATCC 29213; accepted quality control range; cited from earlier work
[4] = system: Enterococcus faecalis (ATCC 29212); conditions: E. faecalis ATCC 29212; accepted quality control range; cited from earlier work
[5] = 52 MRSA isolates, combinations at 2.5:1, given as NB/partner

For Cc1onc(-c2ccccc2)c1C(=O)N[C@@H]1C(=O)N2[C@@H]1SC(C)(C)[C@@H]2C(=O)O [OX, oxacillin], which MIC ([1]; MRSA isolate 757, 24FEB06) is on record?
The MIC was 32 µg/mL.

What about the MIC ([1]; MRSA isolate 758, 03MAR06) of the same compound?
The MIC was over 32 µg/mL.

And the MIC ([1]; MRSA isolate 758, 24FEB06)?
Its MIC is over 32 µg/mL.

And the MIC ([1]; MRSA isolate 760, 03MAR06)?
The MIC was over 32 µg/mL.

And the MIC ([1]; MRSA isolate 760, 24FEB06)?
The MIC was over 32 µg/mL.

And the MIC ([1]; MRSA isolate 763, 22FEB06)?
Its MIC is 32 µg/mL.

And the MIC ([1]; MRSA isolate 765, 22FEB06)?
Its MIC is over 32 µg/mL.

What about the MIC ([1]; MRSA isolate 766, 22FEB06) of the same compound?
The MIC was over 32 µg/mL.

What about the MIC ([1]; MRSA isolate 767, 22FEB06) of the same compound?
The MIC was 16 µg/mL.

And the MIC ([1]; MRSA isolate 768, 22FEB06)?
The MIC was 8 µg/mL.

What about the MIC ([1]; MRSA isolate 769, 22FEB06) of the same compound?
Its MIC is 16 µg/mL.

And the MIC ([1]; MRSA isolate 770, 22FEB06)?
Its MIC is 16 µg/mL.

What about the MIC ([1]; MRSA isolate 771, 22FEB06) of the same compound?
Its MIC is over 32 µg/mL.

What about the MIC ([1]; MRSA isolate 772, 22FEB06) of the same compound?
The MIC was 32 µg/mL.

What about the MIC ([1]; MRSA isolate 773, 24FEB06) of the same compound?
Its MIC is 8 µg/mL.

And the MIC ([1]; MRSA isolate 774, 24FEB06)?
The MIC was 32 µg/mL.

What about the MIC ([1]; MRSA isolate 775, 24FEB06) of the same compound?
The MIC was over 32 µg/mL.

What about the MIC ([1]; MRSA isolate 776, 24FEB06) of the same compound?
The MIC was over 32 µg/mL.

What about the MIC ([1]; MRSA isolate 777, 24FEB06) of the same compound?
Its MIC is 32 µg/mL.

What about the MIC ([1]; MRSA isolate 778, 24FEB06) of the same compound?
Its MIC is over 32 µg/mL.

What about the MIC ([1]; MRSA isolate 886, 24FEB06) of the same compound?
Its MIC is 32 µg/mL.

What about the MIC ([1]; MRSA isolate 887, 24FEB06) of the same compound?
Its MIC is over 32 µg/mL.

And the MIC ([1]; MRSA isolate 888, 24FEB06)?
Its MIC is over 32 µg/mL.

What about the MIC ([1]; MRSA isolate 889, 24FEB06) of the same compound?
The MIC was over 32 µg/mL.

And the MIC ([1]; MRSA isolate 1004, 24FEB06)?
The MIC was 8 µg/mL.

What about the MIC ([1]; MRSA isolate 1010, 22FEB06) of the same compound?
Its MIC is 32 µg/mL.

What about the MIC ([1]; MRSA isolate 1012, 22FEB06) of the same compound?
The MIC was over 32 µg/mL.

What about the MIC ([1]; MRSA isolate 1013, 22FEB06) of the same compound?
Its MIC is 32 µg/mL.

What about the MIC ([1]; MRSA isolate 1014, 22FEB06) of the same compound?
Its MIC is 32 µg/mL.

And the MIC ([1]; MRSA isolate 1015, 22FEB06)?
The MIC was 32 µg/mL.

What about the MIC ([1]; MRSA isolate 1016, 22FEB06) of the same compound?
Its MIC is 8 µg/mL.

What about the MIC ([1]; MRSA isolate 1017, 22FEB06) of the same compound?
Its MIC is 16 µg/mL.

What about the MIC ([1]; MRSA isolate 1021, 22FEB06) of the same compound?
Its MIC is 32 µg/mL.

What about the MIC ([1]; MRSA isolate 1022, 22FEB06) of the same compound?
Its MIC is 8 µg/mL.

And the MIC ([1]; MRSA isolate 1023, 22FEB06)?
The MIC was 4 µg/mL.

And the MIC ([1]; MRSA isolate 1024, 22FEB06)?
Its MIC is 16 µg/mL.

What about the MIC ([1]; MRSA isolate 1025, 22FEB06) of the same compound?
Its MIC is 16 µg/mL.

And the MIC ([1]; MRSA isolate 1135, 22FEB06)?
Its MIC is 32 µg/mL.

And the MIC ([1]; MRSA isolate 1136, 22FEB06)?
The MIC was 32 µg/mL.

And the MIC ([1]; MRSA isolate 1137, 22FEB06)?
Its MIC is over 32 µg/mL.

What about the MIC ([1]; MRSA isolate 1138, 22FEB06) of the same compound?
Its MIC is 8 µg/mL.

And the MIC ([1]; MRSA isolate 1222, 03MAR06)?
The MIC was 32 µg/mL.

What about the MIC ([1]; MRSA isolate 1222, 24FEB06) of the same compound?
Its MIC is 32 µg/mL.

What about the MIC ([1]; MRSA isolate 1653, 03MAR06) of the same compound?
The MIC was over 32 µg/mL.

What about the MIC ([1]; MRSA isolate 1658, 03MAR06) of the same compound?
Its MIC is 16 µg/mL.

And the MIC ([1]; MRSA isolate 1659, 03MAR06)?
The MIC was 16 µg/mL.

What about the MIC ([1]; MRSA isolate 1661, 03MAR06) of the same compound?
The MIC was over 32 µg/mL.

And the MIC ([1]; MRSA isolate 1729, 03MAR06)?
Its MIC is over 32 µg/mL.

And the MIC ([1]; MRSA isolate 1730, 24FEB06)?
The MIC was 32 µg/mL.

What about the MIC ([1]; MRSA isolate 2009, 24FEB06) of the same compound?
Its MIC is over 32 µg/mL.

And the MIC ([1]; MRSA isolate 2010, 24FEB06)?
The MIC was 16 µg/mL.

What about the MIC ([1]; MRSA isolate 2011, 24FEB06) of the same compound?
Its MIC is 32 µg/mL.

And the MIC50 [1, 5]?
Its MIC50 is 32 µg/mL.

And the MIC90 [1, 5]?
The MIC90 was over 32 µg/mL.

And the “MIC Range” value ([2]; 4 VISE isolates, combinations at 2.5:1)?
The value was 0.5 to 16 µg/mL.

What about the MIC ([2]; Staphylococcus epidermidis, VISE isolate 2020, 09MAR06) of the same compound?
The MIC was 8 µg/mL.

And the MIC ([2]; Staphylococcus epidermidis, VISE isolate 2021, 09MAR06)?
Its MIC is 0.5 µg/mL.

And the MIC ([2]; Staphylococcus epidermidis, VISE isolate 2022, 03MAR06)?
The MIC was 16 µg/mL.

What about the MIC ([2]; Staphylococcus epidermidis, VISE isolate 2023, 03MAR06) of the same compound?
Its MIC is 2 µg/mL.

What about the MIC50 ([2]; Staphylococcus epidermidis, 4 VISE isolates, combinations at 2.5:1) of the same compound?
The MIC50 was 2 µg/mL.

What about the “CLSI QC Range (MIC)” value [3] of the same compound?
The value was 0.12 to 0.5 µg/mL.

And the “CLSI QC Range (MIC)” value [4]?
The value was 8 to 32 µg/mL.
